In patent US10160747B2, “Compounds and methods for kinase modulation, and indications therefor” (Plexxikon Inc., priority 2016, dated 2018):

Test system: MOLM-14 D835Y (endogenous FLT3 ITD and transfected FLT3 D835Y)
Assay: MOLM-14 D835Y cell proliferation assay (CellTiter-Glo)
Format: cell-based
Conditions: Homo sapiens, MOLM-14, 72 h; 3 d growth, GMean
Method in brief: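 MOLM-14 cells (FLT3 ITD) carrying D835Y or F691L, 1×10^4 cells/well, eight 1:3 dilutions from 1 μM final, 0.2% DMSO, 3 days at 37 °C, 5% CO2. Viability by CellTiter-Glo luminescence (ATP content); IC50 from concentration-response.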

| SMILES | IC50 |
| --- | --- |
| Cn1cc(Nc2ncc(-c3ccc(CC(=O)Nc4ccnc(C5CC5)c4)c(F)c3)cn2)cn1 [Compound P-0098, N-(2-cyclopropyl-4-pyridyl)-2-[2-fluoro-4-[2-[(1-methylpyrazol-4-yl)amino]pyrimidin-5-yl]phenyl]acetamide] | 0.0001 to 10 µM |
| Cc1ncc(NC(=O)Cc2ccc(-c3cnc(Nc4cn(C)cn4)nc3)cc2F)cc1C(F)(F)F [Compound P-0099, 2-[2-fluoro-4-[2-[(1-methylimidazol-4-yl)amino]pyrimidin-5-yl]phenyl]-N-[6-methyl-5-(trifluoromethyl)-3-pyridyl]acetamide] | 0.0001 to 10 µM |
| Cn1cnc(Nc2ncc(-c3ccc(CC(=O)Nc4cnc(Cl)c(C(F)(F)F)c4)c(F)c3)cn2)c1 [Compound P-0100, N-[6-chloro-5-(trifluoromethyl)-3-pyridyl]-2-[2-fluoro-4-[2-[(1-methylimidazol-4-yl)amino]pyrimidin-5-yl]phenyl]acetamide] | 0.0001 to 10 µM |
| COc1ncc(NC(=O)Cc2ccc(-c3cnc(Nc4cn(C)cn4)nc3)cc2F)cc1C(F)(F)F [Compound P-0101, 2-[2-fluoro-4-[2-[(1-methylimidazol-4-yl)amino]pyrimidin-5-yl]phenyl]-N-[6-methoxy-5-(trifluoromethyl)-3-pyridyl]acetamide] | 0.0001 to 10 µM |
| Cn1cnc(Nc2ncc(-c3ccc(CC(=O)Nc4cc(C(C)(F)F)ccn4)c(F)c3)cn2)c1 [Compound P-0102, N-[4-(1,1-difluoroethyl)-2-pyridyl]-2-[2-fluoro-4-[2-[(1-methylimidazol-4-yl)amino]pyrimidin-5-yl]phenyl]acetamide] | 0.0001 to 10 µM |
| Cn1cnc(Nc2ncc(-c3ccc(CC(=O)Nc4cncc(C(C)(F)F)c4)c(F)c3)cn2)c1 [Compound P-0103, N-[5-(1,1-difluoroethyl)-3-pyridyl]-2-[2-fluoro-4-[2-[(1-methylimidazol-4-yl)amino]pyrimidin-5-yl]phenyl]acetamide] | 0.0001 to 10 µM |
| Cn1cc(Nc2ncc(-c3ccc(CC(=O)Nc4cnc(F)c(C(C)(F)F)c4)cc3)cn2)cn1 [Compound P-0104, N-[5-(1,1-difluoroethyl)-6-fluoro-3-pyridyl]-2-[4-[2-[(1-methylpyrazol-4-yl)amino]pyrimidin-5-yl]phenyl]acetamide] | 0.0001 to 10 µM |
| Cn1cc(Nc2ncc(-c3ccc(CC(=O)Nc4cnc(F)c(C(C)(F)F)c4)c(F)c3)cn2)cn1 [Compound P-0105, N-[5-(1,1-difluoroethyl)-6-fluoro-3-pyridyl]-2-[2-fluoro-4-[2-[(1-methylpyrazol-4-yl)amino]pyrimidin-5-yl]phenyl]acetamide] | 0.0001 to 10 µM |
| Cn1cc(Nc2ncc(-c3ccc(CC(=O)Nc4ccc(C(F)(F)F)cn4)c(F)c3)cn2)cn1 [Compound P-0106, 2-[2-fluoro-4-[2-[(1-methylpyrazol-4-yl)amino]pyrimidin-5-yl]phenyl]-N-[5-(trifluoromethyl)-2-pyridyl]acetamide] | 0.0001 to 10 µM |
| Cn1cc(Nc2ncc(-c3ccc(CC(=O)Nc4cc(Cl)c(C5CC5)cn4)c(F)c3)cn2)cn1 [Compound P-0107, N-(4-chloro-5-cyclopropyl-2-pyridyl)-2-[2-fluoro-4-[2-[(1-methylpyrazol-4-yl)amino]pyrimidin-5-yl]phenyl]acetamide] | 0.0001 to 10 µM |
| Cn1cc(Nc2ncc(-c3ccc(CC(=O)Nc4ccc(C(C)(C)C#N)nc4)c(F)c3)cn2)cn1 [Compound P-0108, N-[6-(1-cyano-1-methyl-ethyl)-3-pyridyl]-2-[2-fluoro-4-[2-[(1-methylpyrazol-4-yl)amino]pyrimidin-5-yl]phenyl]acetamide] | 0.0001 to 10 µM |
| Cn1cc(Nc2ncc(-c3ccc(CC(=O)Nc4ccc(C(F)(F)F)cn4)cc3)cn2)cn1 [Compound P-0109, 2-[4-[2-[(1-methylpyrazol-4-yl)amino]pyrimidin-5-yl]phenyl]-N-[5-(trifluoromethyl)-2-pyridyl]acetamide] | 0.0001 to 10 µM |
| Cn1cc(Nc2ncc(-c3ccc(CC(=O)Nc4ccc(C(F)(F)F)nc4)c(F)c3)cn2)cn1 [Compound P-0110, 2-[2-fluoro-4-[2-[(1-methylpyrazol-4-yl)amino]pyrimidin-5-yl]phenyl]-N-[6-(trifluoromethyl)-3-pyridyl]acetamide] | 0.0001 to 10 µM |
| CCc1cncc(NC(=O)Cc2ccc(-c3cnc(Nc4cnn(C)c4)nc3)cc2F)c1 [Compound P-0111, N-(5-ethyl-3-pyridyl)-2-[2-fluoro-4-[2-[(1-methylpyrazol-4-yl)amino]pyrimidin-5-yl]phenyl]acetamide] | 0.0001 to 10 µM |
| Cn1cc(Nc2ncc(-c3ccc(CC(=O)Nc4cccnc4)cc3)cn2)cn1 [Compound P-0131, 2-[4-[2-[(1-methylpyrazol-4-yl)amino]pyrimidin-5-yl]phenyl]-N-(3-pyridyl)acetamide] | 0.0001 to 10 µM |
| Cn1cc(Nc2ncc(-c3ccc(CC(=O)NCc4cccnc4)cc3)cn2)cn1 [Compound P-0132, 2-[4-[2-[(1-methylpyrazol-4-yl)amino]pyrimidin-5-yl]phenyl]-N-(3-pyridylmethyl)acetamide] | 0.0001 to 10 µM |
| COc1cncc(NC(=O)Cc2ccc(-c3cnc(Nc4cnn(C)c4)nc3)cc2)c1 [Compound P-0133, N-(5-methoxy-3-pyridyl)-2-[4-[2-[(1-methylpyrazol-4-yl)amino]pyrimidin-5-yl]phenyl]acetamide] | 0.0001 to 10 µM |
| Cn1cc(Nc2ncc(-c3ccc(CC(=O)Nc4ccnc(C(F)(F)F)c4)cc3)cn2)cn1 [Compound P-0134, 2-[4-[2-[(1-methylpyrazol-4-yl)amino]pyrimidin-5-yl]phenyl]-N-[2-(trifluoromethyl)-4-pyridyl]acetamide] | 0.0001 to 10 µM |
| Cn1cc(Nc2ncc(-c3ccc(CC(=O)Nc4cc(C(F)(F)F)ncn4)cc3)cn2)cn1 [Compound P-0135, 2-[4-[2-[(1-methylpyrazol-4-yl)amino]pyrimidin-5-yl]phenyl]-N-[6-(trifluoromethyl)pyrimidin-4-yl]acetamide] | 0.0001 to 10 µM |
| Cn1cc(Nc2ncc(-c3ccc(CC(=O)Nc4cncc(C(F)(F)F)c4)cc3)cn2)cn1 [Compound P-0136, 2-[4-[2-[(1-methylpyrazol-4-yl)amino]pyrimidin-5-yl]phenyl]-N-[5-(trifluoromethyl)-3-pyridyl]acetamide] | 0.0001 to 10 µM |
| Cn1cc(Nc2ncc(-c3ccc(CC(=O)Nc4ccnc(C(F)(F)F)n4)cc3)cn2)cn1 [Compound P-0137, 2-[4-[2-[(1-methylpyrazol-4-yl)amino]pyrimidin-5-yl]phenyl]-N-[2-(trifluoromethyl)pyrimidin-4-yl]acetamide] | 0.0001 to 10 µM |
| COc1ncc(NC(=O)Cc2ccc(-c3cnc(Nc4cnn(C)c4)nc3)cc2)cc1C(F)(F)F [Compound P-0138, N-[6-methoxy-5-(trifluoromethyl)-3-pyridyl]-2-[4-[2-[(1-methylpyrazol-4-yl)amino]pyrimidin-5-yl]phenyl]acetamide] | 0.0001 to 10 µM |
| Cn1cc(Nc2ncc(-c3ccc(CC(=O)Nc4cc(C(F)(F)F)ccn4)cc3)cn2)cn1 [Compound P-0139, 2-[4-[2-[(1-methylpyrazol-4-yl)amino]pyrimidin-5-yl]phenyl]-N-[4-(trifluoromethyl)-2-pyridyl]acetamide] | 0.0001 to 10 µM |

Results, then the compound that gave them:

| IC50 | SMILES |
| --- | --- |
| 0.0001 to 10 µM | Cc1cc(-c2cnc3[nH]c(-c4ccccc4)cc3c2)ccc1CC(=O)Nc1cccc(C(F)(F)F)c1 [Compound P-0001, 2-[2-methyl-4-(2-phenyl-1H-pyrrolo[2,3-b]pyridin-5-yl)phenyl]-N-[3-(trifluoromethyl)phenyl]acetamide] |
| 0.0001 to 10 µM | O=C(Cc1ccc(-c2cnc3[nH]c(-c4ccccc4)cc3c2)c(F)c1)Nc1cccc(C(F)(F)F)c1 [Compound P-0003, 2-[3-fluoro-4-(2-phenyl-1H-pyrrolo[2,3-b]pyridin-5-yl)phenyl]-N-[3-(trifluoromethyl)phenyl]acetamide] |
| 0.0001 to 10 µM | O=C(Cc1ccc(-c2cnc3[nH]c(-c4ccccc4)cc3c2)cc1F)Nc1ccnc(C(F)(F)F)c1 [Compound P-0004, 2-[2-fluoro-4-(2-phenyl-1H-pyrrolo[2,3-b]pyridin-5-yl)phenyl]-N-[2-(trifluoromethyl)-4-pyridyl]acetamide] |
| 0.0001 to 10 µM | O=C(Cc1ccc(-c2cnc3[nH]c(-c4ccccc4)cc3c2)cn1)Nc1ccnc(C(F)(F)F)c1 [Compound P-0005, 2-[5-(2-phenyl-1H-pyrrolo[2,3-b]pyridin-5-yl)-2-pyridyl]-N-[2-(trifluoromethyl)-4-pyridyl]acetamide] |
| 0.0001 to 10 µM | Cc1ncc(NC(=O)Cc2ccc(-c3cnc(Nc4cnn(C)c4)nc3)cc2F)cc1C(F)(F)F [Compound P-0091, 2-[2-fluoro-4-[2-[(1-methylpyrazol-4-yl)amino]pyrimidin-5-yl]phenyl]-N-[6-methyl-5-(trifluoromethyl)-3-pyridyl]acetamide] |
| 0.0001 to 10 µM | Cn1cc(Nc2ncc(-c3ccc(CC(=O)Nc4cnc(Cl)c(C(F)(F)F)c4)c(F)c3)cn2)cn1 [Compound P-0092, N-[6-chloro-5-(trifluoromethyl)-3-pyridyl]-2-[2-fluoro-4-[2-[(1-methylpyrazol-4-yl)amino]pyrimidin-5-yl]phenyl]acetamide] |
| 0.0001 to 10 µM | CC(C)c1cc(NC(=O)Cc2ccc(-c3cnc(Nc4cnn(C)c4)nc3)cc2F)ccn1 [Compound P-0094, 2-[2-fluoro-4-[2-[(1-methylpyrazol-4-yl)amino]pyrimidin-5-yl]phenyl]-N-(2-isopropyl-4-pyridyl)acetamide] |
| 0.0001 to 10 µM | Cn1cc(Nc2ncc(-c3ccc(CC(=O)Nc4ccc(C(F)(F)F)nc4)cc3)cn2)cn1 [Compound P-0095, 2-[4-[2-[(1-methylpyrazol-4-yl)amino]pyrimidin-5-yl]phenyl]-N-[6-(trifluoromethyl)-3-pyridyl]acetamide] |
| 0.0001 to 10 µM | Cn1cnc(Nc2ncc(-c3ccc(CC(=O)Nc4cc(C(F)(F)F)ccn4)c(F)c3)cn2)c1 [Compound P-0096, 2-[2-fluoro-4-[2-[(1-methylimidazol-4-yl)amino]pyrimidin-5-yl]phenyl]-N-[4-(trifluoromethyl)-2-pyridyl]acetamide] |
| 0.0001 to 10 µM | Cn1cc(Nc2ncc(-c3ccc(CC(=O)Nc4ccnc(C5CC5)c4)cc3)cn2)cn1 [Compound P-0097, N-(2-cyclopropyl-4-pyridyl)-2-[4-[2-[(1-methylpyrazol-4-yl)amino]pyrimidin-5-yl]phenyl]acetamide] |
